Laboratory results: PMC8453745, “Human Mass Balance and Metabolite Profiling of [^14C]‐Pamiparib, a Poly (ADP‐Ribose) Polymerase Inhibitor, in Patients With Advanced Cancer” (Clinical Pharmacology in Drug Development, 2021)
Entries after “also recorded” stand apart in the source; their conditions may differ.

Experiments:
[1] = parameters: method as in PMID 32652442; conditions: after oral administration in mice; cited from earlier work
[2] = target: T1, CYP2D6 (Homo sapiens, UniProt P10635); assay: CYP450 phenotyping in HLMs with CYP2D6 inhibitor quinidine; type: in vitro ADME; conditions: HLM incubation
T1 construct: tissue Corning (Woburn, New York); host or cells: pooled human liver microsomes
T1 sequence (P10635 whole entry): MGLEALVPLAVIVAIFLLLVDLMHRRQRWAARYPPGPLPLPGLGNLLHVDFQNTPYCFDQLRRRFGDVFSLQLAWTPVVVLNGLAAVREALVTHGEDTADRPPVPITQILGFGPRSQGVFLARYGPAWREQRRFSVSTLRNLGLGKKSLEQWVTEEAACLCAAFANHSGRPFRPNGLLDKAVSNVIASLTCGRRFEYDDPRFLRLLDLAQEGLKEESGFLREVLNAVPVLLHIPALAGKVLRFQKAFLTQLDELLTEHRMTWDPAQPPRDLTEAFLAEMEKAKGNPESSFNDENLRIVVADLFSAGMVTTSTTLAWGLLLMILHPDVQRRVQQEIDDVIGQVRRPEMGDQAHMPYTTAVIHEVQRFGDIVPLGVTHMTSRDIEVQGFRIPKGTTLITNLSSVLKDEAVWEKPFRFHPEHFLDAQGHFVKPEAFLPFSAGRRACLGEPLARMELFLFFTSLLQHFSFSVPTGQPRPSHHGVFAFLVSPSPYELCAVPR
Procedure: Metabolic stability in human liver microsomes (HLMs) and cytochrome P450 (CYP450) phenotyping assays were conducted in 3D BioOptima (Suzhou, China) using validated methodology, [13] to determine the intrinsic clearance and enzymes responsible for metabolism of pamiparib. HLMs for microsome stability was from BD Biosciences (Woburn, New York). For phenotyping, HLMs and recombinant P450 (rCYP) were from Corning (Woburn, New York). Pamiparib (1 μM) was incubated with pooled HLM (0.5 mg/mL), NADPH (1 mM), and MgCl2 (3 mM) terminated at 0, 5, 15, 30, 60, and 90 minutes. The intrinsic clearance was calculated as 0.693/(t1/2 × HLM concentration), where t1/2 is the half‐life of pamiparib determined in HLMs. For phenotyping in HLMs, pamiparib (1 μM) was incubated in the absence or presence of isoform‐selective inhibitors: 0.2 μM α‐naphthoflavone for CYP1A2, 2 μM clopidogrel for CYP2B6, 16 μM montelukast for CYP2C8, 10 μM sulfaphenazole for CYP2C9, 30 μM nootkatone for CYP2C19, 2 μM quinidine for CYP2D6, and 1 μM ketoconazole for CYP3A. The following isoform‐selective probe substrates served as positive controls: 40 μM phenacetin for CYP1A2, 100 μM bupropion for CYP2B6, 2 μM amodiaquine for CYP2C8, 5 μM diclofenac for CYP2C9, 40 μM S‐mephenytoin for CYP2C19, 5 μM dextromethorphan for CYP2D6, and 2 μM midazolam for CYP3A4. […] Pamiparib, M1, and M2 were analyzed by LC‐MS/MS.

[3] = total radioactivity in plasma of patients (LSC); type: in vivo, human
Excerpt: (§1) Part 1 of the study included a screening phase of up to 28 days prior to drug administration to assess eligibility. Patients were admitted to the clinical research unit (CRU) at Royal Liverpool University Hospital (Liverpool, UK)/Clatterbridge Cancer Centre NHS Foundation Trust (Bebington, Wirral, UK) on day −1 and received a single dose of 60‐mg/100 μCi [^14C]‐pamiparib orally the morning of day 1. Patients remained in the CRU until completion of assessments on day 7, when discharge criteria of ≈90% of the radioactive dose being recovered or <1% of the radioactive dose being recovered in urine and feces for 2 consecutive 24‐hour collection intervals were met. If discharge criteria were not met by day 7, patients collected 24‐hour excreta samples up to day 14 on an outpatient basis. Part 2 of the study, evaluating the safety/tolerability and antitumor activity of 60 mg twice‐daily pamiparib in patients with advanced and/or metastatic solid tumors, is ongoing and is not included in this report.
(§2) Patients fasted overnight and 2 hours after oral administration of a single 60‐mg dose containing ≈100 μCi (3.7‐3.9 MBq) of [^14C]‐pamiparib with ≈240 mL of room‐temperature water or juice (orange or grape). The residual radioactivity present in each vial postdose was corrected from the dose. The radioactive dose of 100 μCi of [^14C]‐pamiparib provided minimum risk to patients according to the dosimetry calculation from a quantitative whole‐body autoradiography study in male and female Long Evans rats; the dose also provided sufficient signal for total radioactivity counting and quantitative radioprofiling in blood, plasma, and excreta (data on file). […]
Total radioactivity was analyzed at Covance Laboratories (Harrogate, North Yorkshire, UK), and metabolite profiling was conducted at Covance Laboratories (Madison, Wisconsin). Determination of pamiparib concentrations in plasma and total radioactivity in plasma and whole blood was performed predose and 0.25, 0.5, 1, 1.5, 2, 2.5, 3, 6, 12, 24, 48, 72, 96, 120, and 144 hours postdose. Pamiparib concentrations in plasma and urine were determined at Covance Laboratories (Salt Lake City, Utah) with validated liquid chromatography‐tandem mass spectrometry (LC‐MS/MS) methods.
Total radioactivity concentrations of [^14C]‐pamiparib in whole blood, plasma, urine, and feces were determined by liquid scintillation counting (LSC). Radioactivity in each sample was measured for 5 minutes using a Packard Tri‐Carb liquid scintillation counter model 2100TR, 2900TR, or 3100TR (Canberra Packard, Pangbourne, Berks, Australia) with the facilities for computing quench‐corrected disintegrations per minute. […] Quantitation of the metabolites present in plasma, urine, and feces was based on the profiles of radioactivity. […]

[4] = total radioactivity in whole blood of patients (LSC); type: in vivo, human; conditions: n = 4
Excerpt: as §1, with “If discharge criteria were not met by day 7, patients collected 24‐hour excreta samples up to day 14 on an outpatient basis. Part 2 of the study, evaluating the safety/tolerability and antitumor activity of 60 mg twice‐daily pamiparib in patients with advanced and/or metastatic solid tumors, is ongoing and is not included in this report.” left out
as §2

SMILES: C[C@]12CCCN1CC1=NNC(=O)c3cc(F)cc4[nH]c2c1c34 [Pamiparib]
- brain penetrance [1]: brain penetrance
- effect of CYP2D6 inhibitor quinidine on pamiparib metabolism [2]: minimal effect
- geometric mean AUC0‐t of pamiparib (LC‐MS/MS) as percent of total radioactivity in plasma [3]: ~69.9%
- geometric mean AUC0‐∞ of pamiparib (LC‐MS/MS) as percent of total radioactivity in plasma [3]: ~69.4%
- geometric mean Cmax of pamiparib (LC‐MS/MS) as percent of total radioactivity in plasma [3]: ≈ 91.6%
- AUC0‐∞ ratio plasma pamiparib/total radioactivity, geometric mean (CV%) ([3]; n = 4): 0.694 (2.7)
- AUC0‐∞ ratio blood/plasma, geometric mean (CV%) [4]: ≈ 0.764; also recorded: ≈ 0.76
